Assay [1] deals with RKO p27 or p21 uninduced (proliferating) colon adenocarcinoma cells. Nature of the assay: Alamar Blue cell viability assay, RKO p27 or p21 uninduced (proliferating). Format: cell-based. The settings on record: Homo sapiens, RKOp27, 72 h, Table B2, anti-proliferative/cytotoxic activity, read-out: −log EC50 RKO p27 or p21 uninduced (proliferating) (converted). The procedure, abridged: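 RKO p21 or p27 subclones grown without Ponasterone A, i.e. proliferating, exposed 24 h after seeding to semi-log compound dilutions in DMEM/10% FCS (1% DMSO controls) for 72 h at 37° C. Alamar Blue fluorescence (544/590 nm) read relative to untreated cells; EC50 from dose-response curves, given as −log EC50 (mol/l).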
(In general: Resazurin is reduced to fluorescent resorufin, in cell work by metabolically active cells.)

Assay [2] has as its system RKO p27 or p21 induced (arrested) colon adenocarcinoma cells. In words: Alamar Blue cell viability assay, RKO p27 or p21 induced (arrested). Format: cell-based. The settings on record: Homo sapiens, RKOp27, Table B2, cells arrested by Ponasterone A, 72 hours, read-out: −log EC50 RKO p27 or p21 induced (arrested) (converted). In a few lines:
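RKOp21 or RKOp27 subclones in DMEM/10% FCS with 10 μM Ponasterone A to induce p21/p27 arrest, seeded 24 h before compound; triplicate 72 h exposure at 37 °C. Alamar Blue fluorescence (544/590 nm) as % of untreated (1% DMSO) cells; EC50 from dose-response curves, reported as −log EC50 (mol/l).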

From patent US8530493B2, “Indolopyridines as Eg5 kinesin modulators” (4SC AG, priority 2006, dated 2013) come the findings set out here.

In the case of `C[C@@]12Cc3c([nH]c4ccc(Cl)cc34)[C@@H](c3cccc(O)c3)N1C(=O)N(CCN1CCOCC1)C2=O` (racemic) [Example 120, (3aSR,10RS)-6-Chloro-10-(3-hydroxy-phenyl)-3a-methyl-2-(2-morpholin-4-ylethyl)-3a,4,9,10-tetrahydro-2,9,10a-triaza-cyclopenta[b]fluorene-1,3-dione], the EC50 (usually the concentration at which the effect is half-maximal) in assay [1] was 0.0398 to 0.251 µM; in assay [2] it was at least 0.316 µM.

For the compound `CCN(CCCN1C(=O)N2[C@H](c3cccc(O)c3)c3[nH]c4ccc(OC)cc4c3C[C@@]2(C)C1=O)CCOC` (racemic) [Example 90, (3aSR,10RS)-2-{3-[Ethyl-(2-methoxy-ethyl)-amino]-propyl}-10-(3-hydroxy-phenyl)-6-methoxy-3a-methyl-3a,4,9,10-tetrahydro-2,9,10a-triaza-cyclopenta[b]fluorene-1,3-dione], the EC50 in assay [1] was at most 0.0398 µM; in assay [2] it was at least 3.16 µM.

With `C[C@@]12Cc3c([nH]c4ccc(Cl)cc34)[C@@H](c3cccc(O)c3)N1C(=O)N(CCNCC1CC1)C2=O` (racemic) [Example 108, (3aSR,10RS)-6-Chloro-2-[2-(cyclopropylmethyl-amino)-ethyl]-10-(3-hydroxy-phenyl)-3a-methyl-3a,4,9,10-tetrahydro-2,9,10a-triaza-cyclopenta[b]fluorene-1,3-dione], the EC50 in assay [1] was at most 0.0398 µM; in assay [2], at least 0.316 µM.

Consider `COc1ccc2[nH]c3c(c2c1)C[C@@]1(C)C(=O)N(CCCN2CCCCCC2)C(=O)N1[C@@H]3c1cccc(O)c1` (racemic) [Example 113], for which the figures for the EC50 in assay [1] and in assay [2] were at most 0.0398 µM and at least 0.316 µM, respectively.

With `CCN(C)CCCN1C(=O)N2[C@H](c3cccc(O)c3)c3[nH]c4ccc(OC)cc4c3C[C@@]2(C)C1=O` (racemic) [Example 77, (3aSR,10RS)-2-[3-(Ethyl-methyl-amino)-propyl]-10-(3-hydroxy-phenyl)-6-methoxy-3a-methyl-3a,4,9,10-tetrahydro-2,9,10a-triaza-cyclopenta[b]fluorene-1,3-dione], the values for the EC50 in assay [1] and in assay [2] were at most 0.0398 µM and at least 3.16 µM, respectively.

For `COc1ccc2[nH]c3c(c2c1)C[C@@]1(C)C(=O)N(CCN2CCCCCC2)C(=O)N1[C@@H]3c1cccc(O)c1` (racemic) [Example 74, (3aSR,10RS)-2-(2-Azepan-1-yl-ethyl)-10-(3-hydroxy-phenyl)-6-methoxy-3a-methyl-3a,4,9,10-tetrahydro-2,9,10a-triaza-cyclopenta[b]fluorene-1,3-dione], the EC50 in assay [1] is at most 0.0398 µM; in assay [2], at least 3.16 µM.

Consider `COc1ccc2[nH]c3c(c2c1)C[C@@]1(C)C(=O)N(CCCNCCO)C(=O)N1[C@@H]3c1cccc(O)c1` (racemic) [Example 145, (3aSR,10RS)-2-[3-(2-Hydroxy-ethylamino)-propyl]-10-(3-hydroxy-phenyl)-6-methoxy-3a-methyl-3a,4,9,10-tetrahydro-2,9,10a-triaza-cyclopenta[b]fluorene-1,3-dione], for which the 50% effective concentration (EC50) in assay [1] was at most 0.0398 µM; in assay [2], at least 0.316 µM.

`CC(C)CNCCCN1C(=O)N2[C@H](c3cccc(O)c3)c3[nH]c4ccc(Cl)cc4c3C[C@@]2(C)C1=O` (racemic) [Example 135, (3aSR,10RS)-6-Chloro-10-(3-hydroxy-phenyl)-2-(3-isobutylamino-propyl)-3a-methyl-3a,4,9,10-tetrahydro-2,9,10a-triaza-cyclopenta[b]fluorene-1,3-dione]: the EC50 is at most 0.0398 µM in assay [1] and at least 3.16 µM in assay [2].

As to `COc1ccc2[nH]c3c(c2c1)C[C@@]1(C)C(=O)N(CCCN2CCC2)C(=O)N1[C@@H]3c1cccc(O)c1` (racemic) [Example 87, (3aSR,10RS)-2-(3-Azetidin-1-yl-propyl)-10-(3-hydroxy-phenyl)-6-methoxy-3a-methyl-3a,4,9,10-tetrahydro-2,9,10a-triaza-cyclopenta[b]fluorene-1,3-dione], the 50% effective concentration (EC50) in assay [1] was at most 0.0398 µM; in assay [2] it was at least 3.16 µM.

Regarding `COc1ccc2[nH]c3c(c2c1)C[C@@]1(C)C(=O)N(CCNC(C)(C)C)C(=O)N1[C@@H]3c1cccc(O)c1` (racemic) [Example 72, (3aSR,10RS)-2-(2-tert-Butylamino-ethyl)-10-(3-hydroxy-phenyl)-6-methoxy-3a-methyl-3a,4,9,10-tetrahydro-2,9,10a-triaza-cyclopenta[b]fluorene-1,3-dione], the results for the EC50 in assay [1] and in assay [2] were at most 0.0398 µM and at least 3.16 µM, respectively.

On to `COc1ccc2[nH]c3c(c2c1)C[C@@]1(C)C(=O)N(CCN2CCCCC2)C(=O)N1[C@@H]3c1cccc(O)c1` (racemic) [Example 71, (3aSR,10RS)-10-(3-Hydroxy-phenyl)-6-methoxy-3a-methyl-2-(2-piperidin-1-yl-ethyl)-3a,4,9,10-tetrahydro-2,9,10a-triaza-cyclopenta[b]fluorene-1,3-dione], for which the EC50 in assay [1] is at most 0.0398 µM; in assay [2], at least 3.16 µM.

As for `C[C@@]12Cc3c([nH]c4ccc(Cl)cc34)[C@@H](c3cccc(O)c3)N1C(=O)N(CCCNC1CCC1)C2=O` (racemic) [Example 138, (3aSR,10RS)-6-Chloro-2-(3-cyclobutylamino-propyl)-10-(3-hydroxy-phenyl)-3a-methyl-3a,4,9,10-tetrahydro-2,9,10a-triaza-cyclopenta[b]fluorene-1,3-dione], the EC50 in assay [1] is at most 0.0398 µM; in assay [2], at least 3.16 µM.

For the compound `CCNCCCN1C(=O)N2[C@H](c3cccc(O)c3)c3[nH]c4ccc(Cl)cc4c3C[C@@]2(C)C1=O` (racemic) [Example 131, (3aSR,10RS)-6-Chloro-2-(3-ethylamino-propyl)-10-(3-hydroxy-phenyl)-3a-methyl-3a,4,9,10-tetrahydro-2,9,10a-triaza-cyclopenta[b]fluorene-1,3-dione], the EC50 is at most 0.0398 µM in assay [1] and at least 0.316 µM in assay [2].

As to `COc1ccc2[nH]c3c(c2c1)C[C@@]1(C)C(=O)N(CCCN(C)C(C)C)C(=O)N1[C@@H]3c1cccc(O)c1` (racemic) [Example 94, (3aSR,10RS)-10-(3-Hydroxy-phenyl)-2-[3-(isopropyl-methyl-amino)-propyl]-6-methoxy-3a-methyl-3a,4,9,10-tetrahydro-2,9,10a-triaza-cyclopenta[b]fluorene-1,3-dione], the EC50 was at most 0.0398 µM in assay [1] and at least 3.16 µM in assay [2].

On to `CC(C)(C)NCCN1C(=O)N2[C@H](c3cccc(O)c3)c3[nH]c4ccc(Cl)cc4c3C[C@@]2(C)C1=O` (racemic) [Example 97, (3aSR,10RS)-2-(2-tert-Butylamino-ethyl)-6-chloro-10-(3-hydroxy-phenyl)-3a-methyl-3a,4,9,10-tetrahydro-2,9,10a-triaza-cyclopenta[b]fluorene-1,3-dione], for which the EC50 is at most 0.0398 µM in assay [1] and at least 3.16 µM in assay [2].

As for `COCCNCCN1C(=O)N2[C@H](c3cccc(O)c3)c3[nH]c4ccc(OC)cc4c3C[C@@]2(C)C1=O` (racemic) [Example 83, (3aSR,10RS)-10-(3-Hydroxy-phenyl)-6-methoxy-2-[2-(2-methoxy-ethylamino)-ethyl]-3a-methyl-3a,4,9,10-tetrahydro-2,9,10a-triaza-cyclopenta[b]fluorene-1,3-dione], the EC50 in assay [1] is at most 0.0398 µM; in assay [2], at least 3.16 µM.

As to `CN(CCO)CCCN1C(=O)N2[C@H](c3cccc(O)c3)c3[nH]c4ccc(Cl)cc4c3C[C@@]2(C)C1=O` (racemic) [Example 132, (3aSR,10RS)-6-Chloro-2-{3-[(2-hydroxy-ethyl)-methyl-amino]-propyl}-10-(3-hydroxy-phenyl)-3a-methyl-3a,4,9,10-tetrahydro-2,9,10a-triaza-cyclopenta[b]fluorene-1,3-dione], the half-maximal effective concentration (EC50) is at most 0.0398 µM in assay [1] and at least 0.316 µM in assay [2].

Take `CCN(C)CCCN1C(=O)N2[C@H](c3cccc(O)c3)c3[nH]c4ccc(Cl)cc4c3C[C@@]2(C)C1=O` (racemic) [Example 140, (3aSR,10RS)-6-Chloro-2-[3-(ethyl-methyl-amino)-propyl]-10-(3-hydroxy-phenyl)-3a-methyl-3a,4,9,10-tetrahydro-2,9,10a-triaza-cyclopenta[b]fluorene-1,3-dione]: the EC50 was at most 0.0398 µM in assay [1] and at least 3.16 µM in assay [2].

As for `C#CCNCCN1C(=O)N2[C@H](c3cccc(O)c3)c3[nH]c4ccc(Cl)cc4c3C[C@@]2(C)C1=O` (racemic) [Example 127, (3aSR,10RS)-6-Chloro-10-(3-hydroxy-phenyl)-3a-methyl-2-(2-prop-2-ynylamino-ethyl)-3a,4,9,10-tetrahydro-2,9,10a-triaza-cyclopenta[b]fluorene-1,3-dione], the figures for the concentration giving a half-maximal response (EC50) in assay [1] and in assay [2] were at most 0.0398 µM and at least 0.316 µM, respectively.

`CCN(CC)CCCN1C(=O)N2[C@H](c3cccc(O)c3)c3[nH]c4ccc(Cl)cc4c3C[C@@]2(C)C1=O` (racemic) [Example 137, (3aSR,10RS)-6-Chloro-2-(3-diethylamino-propyl)-10-(3-hydroxy-phenyl)-3a-methyl-3a,4,9,10-tetrahydro-2,9,10a-triaza-cyclopenta[b]fluorene-1,3-dione]: the EC50 in assay [1] is at most 0.0398 µM; in assay [2] it was at least 3.16 µM.

`COc1ccc2[nH]c3c(c2c1)C[C@@]1(C)C(=O)N(CCNCCO)C(=O)N1[C@@H]3c1cccc(O)c1` (racemic) [Example 82, (3aSR,10RS)-2-[2-(2-Hydroxy-ethylamino)-ethyl]-10-(3-hydroxy-phenyl)-6-methoxy-3a-methyl-3a,4,9,10-tetrahydro-2,9,10a-triaza-cyclopenta[b]fluorene-1,3-dione]: the EC50 in assay [1] is at most 0.0398 µM; in assay [2], at least 3.16 µM.
